Entries after “also recorded” stand apart in the source; their conditions may differ. Bounds are passed on as bounds.

Data set [1] relates to CRE-luciferase reporter gene in human neuroblastoma cells. As to the kind of experiment: CRE-luciferase reporter gene assay, forskolin-stimulated human neuroblastoma cells. The data set is classed as cell-based. Particulars: for effect on CRE-luciferase expression: FIG. 2, in words; for increase of forskolin-induced CRE-luciferase expression above forskolin alone: drug for two hours before suboptimal dose of forskolin, assayed 4 hours after forskolin stimulation (FIG. 2A). From the text:
FIG. 2A is a bar graph representation depicting results showing that the PDE4 inhibitors rolipram and HT0712 enhance forskolin-induced gene expression in human neuroblastoma cells. Relative light units (RLU) emitted from luciferase were quantified in human neuroblastoma cells stably transfected with a CRE-luciferase reporter gene and exposed to vehicle alone or drug (HT0712 or rolipram) for two hours before stimulation by a suboptimal dose of forskolin.
A high-throughput drug screen was accomplished using human neuroblastoma cells, which were stably transfected with a luciferase reporter gene driven by a CRE (cAMP response element) promoter (a drug screen for enhancers of CREB function) (Scott, R. et al., J. Mol. Neurosci., 19:171-177 (2002)). Cells were exposed to drug for two hours and then stimulated with a suboptimal dose of forskolin for another four hours. […] Among the dozens of confirmed hits for several molecular targets identified from this screen, inhibitors of PDE4 were numerous.
Background: A reporter such as luciferase makes a cellular process visible.

Data set [2] has as its system somatostatin, an endogenous cAMP-responsive gene, in human neuroblastoma cells. Briefly: Real-time PCR of somatostatin expression, forskolin-stimulated human neuroblastoma cells. The data set is classed as cell-based. As to conditions: for effect on expression of CRE-dependent endogenous gene somatostatin: FIG. 2, in words; for increase in forskolin-induced expression of somatostatin: real-time PCR, ΔCt above vehicle alone (FIG. 2B). From the text:
FIG. 2B is a bar graph representation depicting results showing that the PDE4 inhibitors rolipram and HT0712 enhance forskolin-induced gene expression in human neuroblastoma cells. Real-time PCR was used to quantify expression of somatostatin, an endogenous cAMP-responsive gene. Expression levels induced by forskolin or by forskolin+drug are quantified as differences in threshold cycle number (ΔCt) above vehicle alone control groups.
A general note: Real-time PCR tracks product formation cycle by cycle.

Another data set deals with CBP^+/− mutant mice. Briefly: Object recognition task, long-term memory in CBP+/− mutant mice. The data set is classed as in vivo. Particulars: for 24 hour memory retention versus vehicle-alone group: 3.5 minute training (FIG. 6); for memory retention, drug-treated CBP+/− mutants versus drug-treated wildtype mice / 24 hour memory retention (Discrimination Index) versus vehicle-injected mutants: 0.1 mg/kg i.p. 20 minutes before 15 minute training, tested 24 hours later (FIG. 4); for 24 hour memory retention (Discrimination Index) versus vehicle-injected mutants: p<0.05. From the text:
(§1) Generation of CBP^+/- mice was described by Oike et al. (Human Molecular Genetics, 8:387-396 (1999)). […] For these studies, animals were generated by crossing CBP^+/- mice to C57BL/6 females (Jackson laboratory). The mice were genotyped with a PCR protocol as described previously (Oike, Y. et al., Human Molecular Genetics, 8:387-396 (1999)). Age-(12 to 14 weeks old by the time of handling) and gender-matched mutant mice and wildtype littermates were used for all experiments. Mice were handled for 3-5 minutes for 5 days. […] The first set was used for experiments summarized in FIGS. 3 and 4 (n=10 per genotype). The second set was used for the experiment summarized in FIG. 5 (wildtype mice, n=20). For each experiment, the same set of animals was used repeatedly with different (new) sets of objects for each repetition. […] (iii) each experimental condition was replicated 2-4 independent times, and replicate days were added to generate final number of subjects. Five-to-eight sessions were performed on each set of mice. Each mouse was trained and tested no more than once per week and with a one-week interval between testing. In experiments with drug-injections (see below), vehicle-injected mice and high/low-dose-injected mice, were counterbalanced. In each experiment, the experimenter was unaware (blind) to the treatment of the subjects during training and testing. […] Mice were presented with two objects, one of which was used during training, and thus was 'familiar' and the other of which was novel (e.g. a small pyramid-shape object). The test objects were divided into ten sets of two “training” plus on “testing” objects, and a new set of objects was used for each training session. After each experimental subject, the apparatus and the objects were cleaned with 90% ethanol, dried and ventilated for a few minutes. […] In addition, vehicle- and drug-injected mice were counterbalanced from experiment to experiment. Such design allowed at least two weeks wash-out time between repeated usages of high doses. […] The experiments were videotaped via an overhead video camera system. Types were reviewed by a blinded observer and the following behavioral parameters were determined: time of exploration of an each object; the total time of exploration of the objects; number of approaches to the objects; and time (latency) to first approach to an object. The discrimination index was determined as described previously (Ennaceur, A. & Aggleton, J. P., Behav. Brain Res., 88:181-193 (1997)). The data were analyzed by Student's unpaired t test using statistical software package ([…] Institute, Inc). All values in the text and figure legends are expressed as mean±SEM.

A further data set deals with wildtype mice. As to the kind of experiment: Object recognition task, long-term memory in wildtype mice. Particulars: for 24 hour memory retention versus vehicle-alone group: 3.5 minute training (FIG. 6). The class given is in vivo.
From the text: as §1

Data set [3] is described as follows: Half-life (wash-out consideration). Particulars: mouse, in vivo. As for the experimental part: HT0712 was administered intraperitoneally (i.p.) at doses: 0.001 mg/kg; 0.005 mg/kg; 0.01 mg/kg; 0.05 mg/kg; 0.1 mg/kg, 0.15 mg/kg and 0.2 mg/kg. Rolipram (Sigma) was administered i.p. at dose 0.1 mg/kg. Drug compounds were injected with one week interval to allow sufficient wash-out time (the half-life for HT0712 and Rolipram <3 hours). In addition, vehicle- and drug-injected mice were counterbalanced from experiment to experiment. Such design allowed at least two weeks wash-out time between repeated usages of high doses.

A further data set has as its system normal, young adult mice. As to conditions: delivered directly to the hippocampus, intraventricularly or intraperitoneally (Scott et al. 2002); cited from earlier work.
The subject of a further data set is aged rats. As to conditions: Barad et al. 1998; cited from earlier work.
The mark [4] stands for this setting: i.p., 3.5 minute training, 24-hour memory (FIG. 6).

Take `COc1ccc([C@H]2CNC(=O)[C@H](Cc3cccc(C)c3)C2)cc1OC1CCCC1` [HT0712, (3S,5S)-5-(3-cyclopentyloxy-4-methoxy-phenyl)-3-(3-methyl-benzyl)-piperidin-2-one]: in data set [1], the “effect on CRE-luciferase expression” value is listed as “robust effects”. In addition, the “increase of forskolin-induced CRE-luciferase expression above forskolin alone” value in data set [1] is 1.9 fold. Besides, in data set [2], the “effect on expression of CRE-dependent endogenous gene somatostatin” value is “robust effects”. Moreover, the “increase in forskolin-induced expression of somatostatin” value in data set [2] amounted to 4.6 fold. Also, the “24 hour memory retention versus vehicle-alone group” value in the data set on CBP^+/− mutant mice (0.05 mg/kg i.p., p=0.79) was “did not; also recorded: failed to enhance memory”; in the data set on CBP^+/− mutant mice (0.10 mg/kg i.p., p<0.0001), “higher”; in the data set on CBP^+/− mutant mice (0.15 mg/kg i.p., p<0.0001), “higher”; with CBP^+/− mutant mice (0.2 mg/kg i.p., p<0.0001) it was “higher”; in the data set on wildtype mice (0.05 mg/kg i.p., p<0.005), “significant enhancement; also recorded: higher”; in the data set with wildtype mice (0.10 mg/kg i.p., p<0.0001) it was “higher”. Besides, the “24 hour memory retention versus vehicle-alone group” value with wildtype mice (0.15 mg/kg i.p., p<0.005) is “higher”; in the data set on wildtype mice (0.2 mg/kg i.p., p<0.005) it was “higher”. Besides, the “memory retention, drug-treated CBP+/− mutants versus drug-treated wildtype mice” value with CBP^+/− mutant mice is “did not differ significantly”. In addition, the “24 hour memory retention (Discrimination Index) versus vehicle-injected mutants” value in the data set with CBP^+/− mutant mice is reported as “restored 24-hour memory; also recorded: significantly higher”. Moreover, in the data set with CBP^+/− mutant mice (setting [4]), the “dose at which memory enhancement was first seen (initial effective dose)” value was found to be 0.10 mg/kg. The peak effective dose was determined as 0.15 mg/kg in the data set with CBP^+/− mutant mice (setting [4]) and 0.10 mg/kg in the data set on wildtype mice (setting [4]). In addition, the “24 hour memory retention versus vehicle alone” value in the data set on wildtype mice (0.05 mg/kg i.p. 20 min before 3.5 minute training (FIG. 5), p<0.05) is reported as “significantly increased; also recorded: significantly higher”; with wildtype mice (0.10 mg/kg i.p. 20 min before 3.5 minute training (FIG. 5), p<0.0001) it was “significantly increased; also recorded: significantly higher”; in the data set with wildtype mice (0.15 mg/kg i.p. 20 min before 3.5 minute training (FIG. 5), p<0.001), “significantly increased; also recorded: significantly higher”; in the data set with wildtype mice (0.50 mg/kg i.p., 3.5 minute training (FIG. 5)), “failed to produce any memory enhancement”; with wildtype mice (below 0.05 mg/kg i.p., 3.5 minute training (FIG. 5)) it was “failed to produce any memory enhancement”. Also, the half-life (usually the time in which the quantity being followed falls by half) in data set [3] is less than 3 h. In addition, the “long-term memory formation after contextual fear conditioning” value in the data set on normal, young adult mice is reported as “enhanced”.

On to `COc1ccc(C2CNC(=O)C2)cc1OC1CCCC1` (stereo not drawn) [rolipram, reference compound], for which, in data set [1], the “effect on CRE-luciferase expression” value is listed as “robust effects” and the “increase of forskolin-induced CRE-luciferase expression above forskolin alone” value is reported as 1.9 fold. In addition, in data set [2], the “effect on expression of CRE-dependent endogenous gene somatostatin” value is on record as “robust effects” and the “increase in forskolin-induced expression of somatostatin” value turned out to be 2.3 fold. Further, in the data set with CBP^+/− mutant mice, the “memory retention, drug-treated CBP+/− mutants versus drug-treated wildtype mice” value was “did not differ significantly” and the “24 hour memory retention (Discrimination Index) versus vehicle-injected mutants” value is given as “restored 24-hour memory; also recorded: significantly higher”. In addition, the half-life in data set [3] is less than 3 h. In addition, in the data set with normal, young adult mice, the “long-term memory formation after contextual fear conditioning” value is “enhanced”. Also, the “age-dependent loss of hippocampal-dependent memory and cellular long-term potentiation” value in the data set with aged rats is “ameliorates”.

(Values after patent US7868015B2, “Phosphodiesesterase 4 inhibitors for the treatment of a cognitive deficit” (Cold Spring Harbor Laboratory, priority 2000, dated 2011).)
